Measurements: patent US9244060B2, “Site localization and methods for monitoring treatment of disturbed blood vessels” (Warsaw Orthopedic, Inc., priority 2009, dated 2016)

Details: rat, in vivo
Protocol: Female Sprague-Dawley rats (Harlan Sprague-Dawley, Indianapolis, Ind.), weighing 250-300 grams each were given free access to food and water before the experiment. The animals were anesthetized with ketamine (80 mg/kg) and xylazine (10 mg/kg). Brain temperatures were monitored using a rectal thermometer. The animals' body temperature was maintained at 37° C. by using a water-jacketed heating pad. Brain temperature was monitored for 1 hour prior to injury to 6 hours following injury and was recorded at 30-minute intervals.
Young adult female Sprague-Dawley rats received a spinal cord contusion using the Precision Systems and Instrumentation, LLC (Fairfax Station, Va.) pneumatic impactor. Prior to surgery, rats were assigned to different treatment groups based on a randomized block design so that on any given surgery day all treatment groups were included. The rats were anesthetized with ketamine (80 mg/.kg) and xylazine (10 mg/kg) before laminectomy was performed at the 10th thoracic vertebra (T10). The vertebral column was stabilized with angled clamps on the upper thoracic (T8) and lumber (T11) levels and the impactor with a tip diameter of 2 mm was delivered at approximately 150 kdynes onto the exposed, intact dura overlying the dorsal spinal cord. The impactor was immediately removed, the wound irrigated with saline and the muscle and skin openings sutured together.
Two hours following injury, 0.8% magnesium in 3350 formulations was administered by intravenous infusion of 5 mL/kg over a 30-min period. For repeated infusions, an interval of 6 hours was used between infusions and the right jugular vein was cannulated with PE 50 tubing. The cannula was secured through the back of the neck and capped between infusion periods. Animals were re-anesthetized for re-administration of compounds. The contents of the infusion vials were blinded to the investigators performing both the infusions and the analyses.
At various time points after infusion, cerebrospinal fluid and/or blood samples and/or spinal cord tissue with and without the injury site were collected. […]
Serum and CSF samples were analyzed for magnesium concentrations by the Clinical Pathology Department at WIL Research Laboratories, LLC, 1407 George Road, Ashland, Ohio 44805. […] The formation of the chromophore (and consequently a reduction of the xylidyl blue) is proportional to the concentration of Mg^2+, measured by the instrument as a decrease in the xylidyl blue absorbance (600 nm). […]
Tissue and plasma concentrations of PEG-3350 in rat plasma were measured using a validated high performance liquid chromatograpy tandem mass spectrometry (HPLC/MS/MS) method in positive electrospray ionization mode. […] The samples were analyzed with an HPLC/MS/MS assay using a Thermo Hypersil ODS column. […]

Compound | time for Magnesium serum level to decrease to baseline level post-infusion | time at which Cmax of Magnesium serum level was observed (iv) | time for PEG plasma level to decrease to baseline level post-infusion | time at which Cmax of PEG plasma level was observed (iv)
[Mg+2] [Magnesium, magnesium] | 30 to 60 min | at the end of the infusion |  | 
polyethylene glycol [PEG] |  |  | 30 to 60 min | at the end of the infusion
